In paper PMC4465889 (Biochemical and biophysical research communications, 2014):

What was measured:
[1] = target: V113L mutant human CB2 receptor (Homo sapiens, UniProt P34972, V113L); assay type: binding
[2] = target: L192A mutant human CB2 receptor (Homo sapiens, UniProt P34972, L192A); assay type: binding
Sequence of L192A mutant human CB2 receptor (P34972 whole entry L192A): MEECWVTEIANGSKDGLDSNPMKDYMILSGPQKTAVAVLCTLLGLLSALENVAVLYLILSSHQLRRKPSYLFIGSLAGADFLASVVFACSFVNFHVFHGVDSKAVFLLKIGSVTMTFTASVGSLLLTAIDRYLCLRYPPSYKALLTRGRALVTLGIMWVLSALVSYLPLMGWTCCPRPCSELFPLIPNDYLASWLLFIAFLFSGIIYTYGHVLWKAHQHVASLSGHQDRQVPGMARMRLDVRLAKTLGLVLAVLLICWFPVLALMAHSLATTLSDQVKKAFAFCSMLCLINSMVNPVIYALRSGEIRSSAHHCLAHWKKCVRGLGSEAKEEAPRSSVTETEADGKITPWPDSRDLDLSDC

Sequence of V113L mutant human CB2 receptor (P34972 whole entry V113L): as the sequence (P34972 whole entry L192A) above, with V113L, A192L counted along it

SR144528
Reduction of binding compared to wild type ([1]; V113L mutant vs wild type CB2): 6 fold | Effect of substitution on CB2 binding affinity compared to the wild-type ([1]; V113L mutant vs wild type CB2, in words): slight reduction | Reduction of binding compared to wild type ([2]; L192A mutant vs wild type CB2): 5 fold | Effect of substitution on CB2 binding affinity compared to the wild-type ([2]; L192A mutant vs wild type CB2, in words): slightly reduced
